Measured values published in DBAASP.
≈ marks a conversion by molar mass, not a printed value. Where “and” joins values, the source holds several entries; their conditions need not be identical. Equal entries are not always repeated.

What was measured:
Experiment in all cases: ≥ marks a high value that may be exact or a test limit, other limits are often not marked, values filed in µg/mL are converted to µM
[1] = tested on: Candida albicans ATCC 2002
[2] = tested on: Escherichia coli ATCC 25922
[3] = tested on: Staphylococcus aureus ATCC 2592
[4] = tested on: Bacillus subtilis ATCC 6633
Shigella dysenteriae = tested on: Shigella dysenteriae
[5] = tested on: Bacillus subtilis ATCC 23857
[6] = tested on: Pseudomonas aeruginosa ATCC 9027
[7] = tested on: Staphylococcus aureus ATCC 6538
Bacillus subtilis 168 = tested on: Bacillus subtilis 168
Escherichia coli B = tested on: Escherichia coli B
Pseudomonas aeruginosa = tested on: Pseudomonas aeruginosa
Staphylococcus aureus = tested on: Staphylococcus aureus
Escherichia coli = tested on: Escherichia coli
[8] = tested on: Klebsiella pneumoniae ATCC 700603
[9] = tested on: Staphylococcus aureus ATCC 25923
[10] = tested on: Staphylococcus epidermidis ATCC 12228
[11] = tested on: Micrococcus luteus ATCC 9341
Bacillus cereus = tested on: Bacillus cereus
[12] = tested on: Enterococcus faecalis ATCC 29212
[13] = tested on: Pseudomonas aeruginosa ATCC 27853
[14] = tested on: Salmonella enterica subsp. enterica serovar Typhimurium C77-31
[15] = tested on: Staphylococcus aureus ATCC 29213
Escherichia coli UB1005 = tested on: Escherichia coli UB1005

**Q.** With CC[C@H](C)[C@H](NC(=O)[C@H](CC(C)C)NC(=O)[C@@H](N)Cc1ccccc1)C(=O)N[C@H](C(=O)N[C@@H](CCCN=C(N)N)C(=O)N[C@@H](CCCN=C(N)N)C(=O)N1CCC[C@H]1C(=O)N[C@H](C(=O)N[C@H](C(=O)N[C@@H](CC(C)C)C(=O)NCC(=O)N[C@@H](CC(C)C)C(=O)N[C@@H](CC(C)C)C(N)=O)C(C)C)[C@@H](C)CC)[C@@H](C)CC [FLIIRRPIVLGLL] as the compound, how does the MIC [1] read?
**A.** 8.21 µM (≈ 12.5 µg/mL)

**Q.** What about the MIC [2] of the same compound?
**A.** 19.7 µM (≈ 30 µg/mL)

**Q.** And the MIC [3]?
**A.** 6.57 µM (≈ 9.99 µg/mL)

**Q.** For CC[C@H](C)[C@@H]1NC(=O)[C@@H]2CCCN2C(=O)[C@@H](NC(=O)[C@H](Cc2ccccc2)NC(=O)[C@H](CC(C)C)NC(=O)[C@@H](NC(=O)[C@@H]2CCCN2C(=O)[C@@H](NC(=O)[C@@H](NC(=O)[C@H](CCCCN)NC(=O)[C@H](Cc2ccccc2)NC(=O)[C@H](C)NC(=O)[C@@H](NC(=O)[C@H](CCCCN)NC(=O)[C@H](CC(C)C)NC(=O)[C@H](CC(C)C)NC(=O)[C@@H](NC(=O)[C@H](CO)NC(=O)[C@H](CC(C)C)NC(=O)[C@@H](N)Cc2ccccc2)[C@@H](C)O)C(C)C)C(C)C)C(C)C)[C@@H](C)O)CSSC[C@@H](C(N)=O)NC(=O)[C@H](CCCCN)NC(=O)[C@H](CCCCN)NC(=O)[C@H]([C@@H](C)O)NC1=O [FLSTLLKVAFKVVPTLFCPITKKC], which MIC [4] is on record?
**A.** 1.74 µM (≈ 4.69 µg/mL)

**Q.** And the MIC [1]?
**A.** 1.74 µM (≈ 4.69 µg/mL)

**Q.** What about the MIC [2] of the same compound?
**A.** 6.95 µM (≈ 18.7 µg/mL)

**Q.** And the MIC (Shigella dysenteriae)?
**A.** 3.48 µM (≈ 9.37 µg/mL)

**Q.** What about the MIC [3] of the same compound?
**A.** 0.434 µM (≈ 1.17 µg/mL)

**Q.** With CC[C@H](C)[C@H](NC(=O)CN)C(=O)N[C@H](C(=O)N[C@@H](C)C(=O)NCC(=O)N[C@H](C(=O)N[C@H](C(=O)N[C@H](C(=O)N[C@@H](CCCCN)C(=O)N[C@H](C(=O)N[C@@H](CCCCN)C(=O)N[C@@H](C)C(N)=O)[C@@H](C)CC)[C@@H](C)CC)[C@@H](C)CC)[C@@H](C)CC)[C@@H](C)CC [GIIAGIIIKIKA] as the compound, how does the MIC [5] read?
**A.** ≥ 128 µM

**Q.** What about the MIC [2] of the same compound?
**A.** > 128 µM

**Q.** What does the source list for CC[C@H](C)[C@H](NC(=O)[C@H](CCCCN)NC(=O)[C@H](CCCCN)NC(=O)[C@@H](NC(=O)[C@@H](NC(=O)[C@H](CCCCN)NC(=O)[C@H](CCCCN)NC(=O)[C@@H](NC(=O)[C@@H](NC(=O)[C@H](CCCCN)NC(=O)[C@H](CCCCN)NC(=O)[C@@H](NC(=O)[C@@H](NC(=O)CN)[C@@H](C)CC)C(C)C)[C@@H](C)CC)C(C)C)[C@@H](C)CC)C(C)C)C(N)=O [GIVKKIVKKIVKKI]?
**A.** MIC [5]: 1.7 µM (≈ 2.71 µg/mL); MIC [2]: 22 µM (≈ 35 µg/mL); MIC [6]: 21 µM (≈ 33.5 µg/mL); MIC [7]: 128 µM (≈ 204 µg/mL)

**Q.** For CC[C@H](C)[C@H](NC(=O)[C@H](CC(C)C)NC(=O)[C@H](Cc1cnc[nH]1)NC(=O)CNC(=O)[C@H](CC(C)C)NC(=O)[C@@H](NC(=O)[C@H](CCCCN)NC(=O)[C@H](CO)NC(=O)[C@H](Cc1c[nH]c2ccccc12)NC(=O)[C@H](CCSC)NC(=O)CN)[C@@H](C)CC)C(N)=O [GMWSKILGHLI], which MIC (Bacillus subtilis 168) is on record?
**A.** 3.5 µM (≈ 4.39 µg/mL)

**Q.** What about the MIC (Escherichia coli B) of the same compound?
**A.** 7 µM (≈ 8.78 µg/mL)

**Q.** What about the MIC (Pseudomonas aeruginosa) of the same compound?
**A.** 100 µM (≈ 125 µg/mL)

**Q.** What about the MIC (Staphylococcus aureus) of the same compound?
**A.** 15.5 µM (≈ 19.4 µg/mL)

**Q.** What does the source list for CC[C@H](C)[C@H](NC(=O)[C@H](CCCCN)NC(=O)[C@H](CCCCN)NC(=O)[C@H](C)NC(=O)[C@@H](NC(=O)[C@H](C)NC(=O)[C@H](CC(C)C)NC(=O)[C@H](CC(C)C)NC(=O)[C@H](C)NC(=O)[C@H](CCCCN)NC(=O)[C@H](CC(C)C)NC(=O)[C@H](CC(N)=O)NC(=O)CN)C(C)C)C(=O)N[C@@H](CC(C)C)C(N)=O [GNLKALLAVAKKIL]?
**A.** MIC [5]: 4 µM (≈ 5.8 µg/mL); MIC (Escherichia coli): 8 µM (≈ 11.6 µg/mL); MIC [8]: 16 µM (≈ 23.2 µg/mL); MIC [9]: 32 µM (≈ 46.4 µg/mL)

**Q.** How did the MIC [5] turn out when CC[C@H](C)[C@H](N)C(=O)N[C@@H](CC(C)C)C(=O)NCC(=O)N[C@H](C(=O)N[C@H](C(=O)N[C@@H](CC(C)C)C(=O)NCC(=O)N[C@@H](CC(C)C)C(=O)N[C@@H](CC(C)C)C(=O)N[C@@H](CCCCN)C(=O)N[C@@H](C)C(=O)N[C@@H](CC(C)C)C(N)=O)[C@@H](C)CC)[C@@H](C)O [ILGTILGLLKAL] was run?
**A.** 8 µM (≈ 9.79 µg/mL)

**Q.** What about the MIC [2] of the same compound?
**A.** 64 µM (≈ 78.3 µg/mL)

**Q.** And the MIC [9]?
**A.** 16 µM (≈ 19.6 µg/mL)

**Q.** What about the MIC [10] of the same compound?
**A.** 16 µM (≈ 19.6 µg/mL)

**Q.** With CC[C@H](C)[C@H](N)C(=O)N[C@@H](CC(C)C)C(=O)N1CCC[C@H]1C(=O)N[C@@H](Cc1cnc[nH]1)C(=O)N[C@@H](CCCCN)C(=O)N[C@@H](Cc1cnc[nH]1)C(=O)N1CCC[C@H]1C(=O)N[C@@H](Cc1cnc[nH]1)C(=O)N[C@@H](Cc1cnc[nH]1)C(=O)N1CCC[C@H]1C(=O)N[C@@H](Cc1cnc[nH]1)C(=O)N[C@@H](CCCN=C(N)N)C(=O)N[C@@H](CCCN=C(N)N)C(N)=O [ILPHKHPHHPHRR] as the compound, how does the MIC [11] read?
**A.** ≥ 100 µM

**Q.** CSCC[C@@H]1NC(=O)[C@H](CC(C)C)NC(=O)[C@H](C)NC(=O)[C@H](CCCN=C(N)N)NC(=O)[C@H](Cc2ccccc2)NC(=O)[C@H](CC(C)C)NC(=O)CNC(=O)[C@H](CCCCN)NC(=O)[C@@H](NC(=O)[C@H](CCCN=C(N)N)NC(=O)[C@@H]2CCCN2C(=O)[C@@H](NC(=O)[C@H](CO)NC(=O)[C@H](Cc2ccc(O)cc2)NC(=O)[C@H](C)NC(=O)[C@@H](N)CCCCN)[C@@H](C)O)CSSC[C@@H](C(=O)N[C@@H](Cc2c[nH]c3ccccc23)C(=O)N[C@@H](CC(C)C)C(N)=O)NC1=O [KAYSTPRCKGLFRALMCWL] was tested. Which MIC (Bacillus cereus) did it give?
**A.** 22.3 µM (≈ 49.9 µg/mL)

**Q.** What about the MIC [1] of the same compound?
**A.** 22.3 µM (≈ 49.9 µg/mL)

**Q.** What about the MIC [2] of the same compound?
**A.** 5.57 µM (≈ 12.5 µg/mL)

**Q.** And the MIC (Pseudomonas aeruginosa)?
**A.** 22.3 µM (≈ 49.9 µg/mL)

**Q.** What about the MIC (Shigella dysenteriae) of the same compound?
**A.** 2.78 µM (≈ 6.24 µg/mL)

**Q.** What about the MIC [3] of the same compound?
**A.** 5.57 µM (≈ 12.5 µg/mL)

**Q.** CC[C@H](C)[C@H](NC(=O)[C@H](CC(C)C)NC(=O)[C@H](Cc1cnc[nH]1)NC(=O)CNC(=O)[C@H](CC(C)C)NC(=O)[C@@H](NC(=O)[C@H](CCCCN)NC(=O)[C@H](CO)NC(=O)[C@H](Cc1c[nH]c2ccccc12)NC(=O)[C@H](CCSC)NC(=O)[C@@H](N)CCCCN)[C@@H](C)CC)C(=O)N[C@@H](CCCN=C(N)N)C(N)=O [KMWSKILGHLIR] was tested. Which MIC (Bacillus subtilis 168) did it give?
**A.** 2.1 µM (≈ 3.11 µg/mL)

**Q.** What about the MIC (Escherichia coli B) of the same compound?
**A.** 6.3 µM (≈ 9.33 µg/mL)

**Q.** And the MIC (Pseudomonas aeruginosa)?
**A.** 73.3 µM (≈ 109 µg/mL)

**Q.** And the MIC (Staphylococcus aureus)?
**A.** 41.7 µM (≈ 61.8 µg/mL)

**Q.** What does the source list for CC(C)C[C@H](NC(=O)[C@H](CCCN=C(N)N)NC(=O)[C@H](CC(N)=O)NC(=O)[C@H](C)NC(=O)[C@H](CCCN=C(N)N)NC(=O)[C@H](CC(C)C)NC(=O)[C@H](Cc1c[nH]c2ccccc12)NC(=O)[C@H](CC(C)C)NC(=O)[C@H](CCCN=C(N)N)NC(=O)[C@H](CCCN=C(N)N)NC(=O)[C@H](CC(C)C)NC(=O)[C@H](CC(C)C)NC(=O)[C@H](CCCN=C(N)N)NC(=O)[C@H](CC(N)=O)NC(=O)[C@H](C)NC(=O)[C@H](CCCN=C(N)N)NC(=O)[C@H](CC(C)C)NC(=O)[C@H](Cc1c[nH]c2ccccc12)NC(=O)[C@H](CC(C)C)NC(=O)[C@H](CCCN=C(N)N)NC(=O)[C@H](CCCN=C(N)N)NC(=O)[C@@H](N)CC(C)C)C(N)=O [LRRLWLRANRLLRRLWLRANRL]?
**A.** MIC [12]: 2 µM and 4 µM; MIC [2]: 4 µM (≈ 11.7 µg/mL); MIC [13]: 4 µM (≈ 11.7 µg/mL); MIC [14]: 2 µM and 4 µM; MIC [15]: 2 µM and 4 µM; MIC [10]: 2 µM and 4 µM

**Q.** CC(C)C[C@H](NC(=O)[C@H](CCCN=C(N)N)NC(=O)[C@H](Cc1c[nH]c2ccccc12)NC(=O)[C@H](CCCN=C(N)N)NC(=O)[C@@H](NC(=O)[C@H](CCCCN)NC(=O)[C@H](Cc1c[nH]c2ccccc12)NC(=O)[C@H](CCCN=C(N)N)NC(=O)[C@H](CC(C)C)NC(=O)[C@H](Cc1c[nH]c2ccccc12)NC(=O)[C@@H](N)CCCN=C(N)N)[C@@H](C)O)C(=O)N[C@@H](CCCCN)C(N)=O [RWLRWKTRWRLK] was tested. Which MIC [2] did it give?
**A.** 2 µM (≈ 3.57 µg/mL)

**Q.** And the MIC (Escherichia coli UB1005)?
**A.** 4 µM (≈ 7.14 µg/mL)

**Q.** And the MIC [14]?
**A.** 8 µM (≈ 14.3 µg/mL)

**Q.** And the MIC [9]?
**A.** 16 µM (≈ 28.5 µg/mL)

**Q.** And the MIC [15]?
**A.** 4 µM (≈ 7.14 µg/mL)

**Q.** What about the MIC [10] of the same compound?
**A.** 16 µM (≈ 28.5 µg/mL)
